Consider six compounds from publication PMC6327999, “Hydroxyl-substituted double Schiff-base condensed 4-piperidone/cyclohexanones as potential anticancer agents with biological evaluation” (Journal of Enzyme Inhibition and Medicinal Chemistry, 2019).

Test [1] relates to human liver hepatocellular carcinoma cell line (Hepg2). The test can be described thus: Cytotoxicity, MTT assay, HePG2. It counts as cell-based. The following applies: for IC50: Homo sapiens, HepG2, MTT, 24 hours; for HePG2 SI: quotient of the IC50 values towards nonmalignant LO2 cells. An excerpt:
Compounds 2a–d, 3a–e, 4a–e, 5a–d, and 6a–c were screened against human neoplastic cell lines such as human lung carcinoma cells (A549), human gastric adenocarcinoma cells (SGC7901), human cervical carcinoma cells (HeLa), human liver hepatocellular carcinoma cell line (Hepg2), human chronic myelogenous leukemia cell line (K562), human acute mononuclear granulocyte leukemia (THP-1), human normal heptical cell line (LO2) (Table 1) using modified MTT assay (3-(4,5-dimethyl-2-thiazolyl)-2,5-diphenyl-2-H-tetrazolium bromide, MTT, Dojindo Laboratories, Tokyo, Japan). All cell lines were maintained at 37 °C in a humidified 5% CO2 and 95% air atmosphere. The HePG2 cell lines were cultured in DMEM containing 10% fetal bovine serum. Other cell lines were grown in medium 1640 and supplemented with 10% fetal bovine serum. […] Controls were prepared with 0.1% DMSO (v/v) only. The cells were seeded in a 96-well plate in 200 µL medium per well at a density of 1 × 10^4 cells/well for 24 hours. The cells were treated with serial concentrations of compound and incubated for 24 hours. Cells with only culture media were used as control. After the media was removed, 20 µL of MTT (5 mg/mL) was added then the plates were incubated for 4 hours at 37 °C in cell culture incubator. The MTT containing media were removed and then 150 µL of DMSO was added to dissolve the dark-blue formazan crystals. The optical density (OD) was measured by a multi-well plate reader (TECAN, Männedorf, Switzerland) at 570 nm. The results are expressed as a decrease in the cell viability (%) in comparison to untreated controls. The concentration of each compound was examined in triplicate, and the IC50 values are expressed in Table 1. The concentrations of the compounds were 50, 20, 10, 5, 2.5, 1, 0.5, 0.1, 0.05 and 0.01 µg/mL. […] The concentrations of curcumin used were 100, 50, 25, 12.5, 6.25, 3.125, 1, 0.5 and 0.1 µg/mL.
A general note: Formazan colour is commonly taken as a measure of viable cells.

For test [2], the system named is human carcinoma cell lines A549, SGC7901, HePG2, HeLa, K562, THP-1. The test can be described thus: Cytotoxicity, MTT assay, panel of human carcinoma cell lines (average / overall). It counts as cell-based. The settings on record: average over the six carcinoma cell lines; for IC50: Homo sapiens, read-out: Ave IC50. An excerpt:
(§1) Compounds 2a–d, 3a–e, 4a–e, 5a–d, and 6a–c were screened against human neoplastic cell lines such as human lung carcinoma cells (A549), human gastric adenocarcinoma cells (SGC7901), human cervical carcinoma cells (HeLa), human liver hepatocellular carcinoma cell line (Hepg2), human chronic myelogenous leukemia cell line (K562), human acute mononuclear granulocyte leukemia (THP-1), human normal heptical cell line (LO2) (Table 1) using modified MTT assay (3-(4,5-dimethyl-2-thiazolyl)-2,5-diphenyl-2-H-tetrazolium bromide, MTT, Dojindo Laboratories, Tokyo, Japan). All cell lines were maintained at 37 °C in a humidified 5% CO2 and 95% air atmosphere. The HePG2 cell lines were cultured in DMEM containing 10% fetal bovine serum. Other cell lines were grown in medium 1640 and supplemented with 10% fetal bovine serum. […] Controls were prepared with 0.1% DMSO (v/v) only. The cells were seeded in a 96-well plate in 200 µL medium per well at a density of 1 × 10^4 cells/well for 24 hours. The cells were treated with serial concentrations of compound and incubated for 24 hours. Cells with only culture media were used as control. After the media was removed, 20 µL of MTT (5 mg/mL) was added then the plates were incubated for 4 hours at 37 °C in cell culture incubator. The MTT containing media were removed and then 150 µL of DMSO was added to dissolve the dark-blue formazan crystals. The optical density (OD) was measured by a multi-well plate reader (TECAN, Männedorf, Switzerland) at 570 nm. The results are expressed as a decrease in the cell viability (%) in comparison to untreated controls. The concentration of each compound was examined in triplicate, and the IC50 values are expressed in Table 1. The concentrations of the compounds were 50, 20, 10, 5, 2.5, 1, 0.5, 0.1, 0.05 and 0.01 µg/mL. Doxorubicin (DOX) and Curcumin were used as positive controls. […] The concentrations of curcumin used were 100, 50, 25, 12.5, 6.25, 3.125, 1, 0.5 and 0.1 µg/mL.
The cytotoxicity activities against human carcinoma cell lines A549, SGC7901, HePG2, HeLa, K562, THP-1 and cytotoxicity toward LO2 cell lines were evaluated by MTT method. DOX and curcumin were used as positive control. The selectivity index (SI) is the quotient of the IC50 values towards nonmalignant LO2 cells. […] Especially for 4a–e, 5a–d, and 6a–c, this ratio can reach about 92%.

Test [3] deals with human cervical carcinoma cells (HeLa). The experiment in a line: Cytotoxicity, MTT assay, HeLa. It counts as cell-based. The following applies: for IC50: Homo sapiens, HeLa, MTT, 24 hours; for HeLa SI: quotient of the IC50 values towards nonmalignant LO2 cells.
Source text: as §1

The test system of test [4] is human chronic myelogenous leukemia cell line (K562). The test can be described thus: Cytotoxicity, MTT assay, K562. Format: cell-based. The following applies: for IC50: Homo sapiens, K562, MTT, 24 hours; for K562 SI: quotient of the IC50 values towards nonmalignant LO2 cells.
Source text: as §1

The test system of test [5] is human acute mononuclear granulocyte leukemia (THP-1). The test can be described thus: Cytotoxicity, MTT assay, THP-1. Format: cell-based. The settings on record: for IC50: Homo sapiens, THP-1, MTT, 24 hours; for THP-1 SI: quotient of the IC50 values towards nonmalignant LO2 cells.
Source text: as §1

Test [6] concerns human lung carcinoma cells (A549). The test can be described thus: Cytotoxicity, MTT assay, A549. Format: cell-based. The following applies: for IC50: Homo sapiens, A549, MTT, 24 hours; for A549 SI: quotient of the IC50 values towards nonmalignant LO2 cells.
Source text: as §1

The test system of test [7] is human gastric adenocarcinoma cells (SGC7901). The experiment in a line: Cytotoxicity, MTT assay, SGC7901. The following applies: for IC50: Homo sapiens, SGC-7901, MTT, 24 hours; for SGC7901 SI: quotient of the IC50 values towards nonmalignant LO2 cells. It counts as cell-based.
Source text: as §1

The test system of test [8] is human normal heptical cell line (LO2). The experiment in a line: Cytotoxicity, MTT assay, non-malignant LO2. It counts as cell-based. The following applies: 24 hours, non-malignant cells.
Source text: as §1

For a further test, the system named is HepG2 xenografts. The test can be described thus: In vivo antitumor efficacy, HepG2-bearing nude mice. Set-up: species or system Balb/c nude mice. The settings on record: DOX 1.0 mg/kg every two days for 20 days. The method, then:
The antitumor effect was investigated on the seven-week-old female Balb/c nude mice (n = 30) weighing 19–21 grams (Shanghai Laboratory Animal Center). Briefly, 0.2 mL HepG2 cells (1 × 10^7/mL) were inoculated subcutaneously into the alar left of each mouse. On the third day after the inoculation, the HepG2-bearing mice were randomly divided into five groups (n = 6/group) and administrated the according drug or solvent. […] The control group was administrated of saline as negative control. The body weight and tumor volumes calculation were recorded from the day of treatment, and the tumor volumes were calculated using the following equation: tumor volume = length × (width)^2 × π/6. Animal experiments were reviewed and approved by the Binzhou Medical University Experimental Animal Committee.

Take `COc1ccc(/C=N/c2ccc(F)c(/C=C3\CNC/C(=C\c4cc(/N=C/c5ccc(OC)cc5O)ccc4F)C3=O)c2)c(O)c1` [5d]: the IC50 (usually the point on the concentration scale where inhibition reaches its midpoint) is 2700 ± 200 nM in [1]; 2400 nM in test [2]; 3800 ± 200 nM in test [3]; 1500 ± 100 nM in test [4]; 2100 ± 200 nM in test [5]; 2500 ± 100 nM in test [6]. For the same compound, the figures for the IC50 in [7] and in [8] were 1800 ± 100 nM and 14600 ± 1260 nM, respectively. Also, in test [1], the “HePG2 SI” value is on record as 5.6. Moreover, the “Ave SI” value in [2] came to 6.7. In test [3], the “HeLa SI” value turned out to be 3.8. Moreover, in test [4], the “K562 SI” value is listed as 9.7. Also, the “THP-1 SI” value in test [5] is 6.8. The “A549 SI” value in test [6] is 5.8. In addition, the “SGC7901 SI” value in test [7] is recorded as 8.3.
As for `CN1C/C(=C\c2cc(/N=C/c3cccc(O)c3O)ccc2F)C(=O)/C(=C/c2cc(/N=C/c3cccc(O)c3O)ccc2F)C1` [6a], in test [1], the IC50 stood at 2600 ± 100 nM and the “HePG2 SI” value came to 8.4. Moreover, in [2], the IC50 came out at 2200 nM and the “Ave SI” value is 10.2. Also, in test [3], it took 2200 ± 200 nM to reach half-maximal inhibition (IC50) and the “HeLa SI” value amounted to 9.9. In test [4], the midpoint of inhibition, the IC50, lay at 2800 ± 200 nM and the “K562 SI” value stood at 7.7. In addition, in test [5], the IC50 is 1500 ± 200 nM and the “THP-1 SI” value is 14.2. Besides, in [6], half-maximal inhibition (IC50) required 1900 ± 100 nM and the “A549 SI” value worked out at 11.6. In test [7], the midpoint of inhibition, the IC50, lay at 2400 ± 100 nM and the “SGC7901 SI” value was determined as 9.2. The midpoint of inhibition in test [8], the IC50, lay at 21700 ± 2000 nM.
In the case of `CN1C/C(=C\c2cc(/N=C/c3cc(O)ccc3O)ccc2F)C(=O)/C(=C/c2cc(/N=C/c3cc(O)ccc3O)ccc2F)C1` [6b], the half-maximal inhibitory concentration (IC50) worked out at 2700 ± 200 nM in test [1]; 3000 nM in test [2]; 3400 ± 400 nM in test [3]; 5100 ± 300 nM in test [4]; 1800 ± 100 nM in test [5]; 2300 ± 100 nM in test [6]. Besides, the IC50 in test [7] was 2600 ± 100 nM; in test [8], 21300 ± 2000 nM. In [1], the “HePG2 SI” value turned out to be 7.8. Also, the “Ave SI” value in test [2] is given as 7.9. In [3], the “HeLa SI” value was 6.2. Also, the “K562 SI” value in test [4] amounted to 4.2. Moreover, the “THP-1 SI” value in test [5] was 12.0. The “A549 SI” value in test [6] was found to be 9.1. The “SGC7901 SI” value in [7] turned out to be 8.3.
On to `CN1C/C(=C\c2cc(/N=C/c3ccc(O)c(O)c3O)ccc2F)C(=O)/C(=C/c2cc(/N=C/c3ccc(O)c(O)c3O)ccc2F)C1` [6c], for which, in test [1], the IC50 came out at 2600 ± 200 nM and the “HePG2 SI” value turned out to be 7.1. Moreover, in [2], the IC50 came out at 2000 nM and the “Ave SI” value is recorded as 9.5. In [3], the midpoint of inhibition, the IC50, lay at 2500 ± 100 nM and the “HeLa SI” value is reported as 7.5. Besides, in test [4], it took 1900 ± 200 nM to reach half-maximal inhibition (IC50) and the “K562 SI” value amounted to 9.5. For the same compound, in test [5], the IC50 was found to be 1600 ± 100 nM and the “THP-1 SI” value is given as 11.4. In test [6], the IC50 worked out at 1500 ± 200 nM and the “A549 SI” value came to 12.5. In test [7], the IC50 amounted to 2000 ± 200 nM and the “SGC7901 SI” value was 9.3. For the same compound, the IC50 in test [8] was found to be 18400 ± 1000 nM.
For the compound `COc1cc(/C=C/C(=O)CC(=O)/C=C/c2ccc(O)c(OC)c2)ccc1O` [Curcumin, reference compound], in test [1], the concentration for half-maximal inhibition (IC50) stood at 16000 ± 200 nM and the “HePG2 SI” value came to 1.7. Also, in test [2], the IC50 is 20800 nM and the “Ave SI” value amounted to 1.4. For the same compound, in [3], 23800 ± 1300 nM corresponded to half-maximal inhibition (IC50) and the “HeLa SI” value stood at 1.2. Moreover, in [4], it took 22100 ± 800 nM to reach half-maximal inhibition (IC50) and the “K562 SI” value worked out at 1.2. In test [5], the IC50 turned out to be 21700 ± 400 nM and the “THP-1 SI” value was determined as 1.3. Moreover, in test [6], the midpoint of inhibition, the IC50, lay at 19400 ± 200 nM and the “A549 SI” value worked out at 1.4. Further, in [7], the IC50 is 21500 ± 300 nM and the “SGC7901 SI” value was 1.3. The same compound yielded an IC50 in test [8] of 27500 ± 400 nM.
`COc1cccc2c1C(=O)c1c(O)c3c(c(O)c1C2=O)C[C@@](O)(C(=O)CO)C[C@@H]3O[C@H]1C[C@H](N)[C@H](O)[C@H](C)O1` [DOX, Doxorubicin, reference compound]: the IC50 was found to be 600 ± 100 nM in test [1]; 2600 nM in test [2]; 2100 ± 300 nM in [3]; 1600 ± 200 nM in test [4]; 500 ± 200 nM in test [5]; 3800 ± 100 nM in test [6]. Moreover, the IC50 in [7] was found to be 7000 ± 400 nM; in [8], 6100 ± 500 nM. The tumor growth inhibition result in the test with HepG2 xenografts is given as “suppressed significantly”.
